This note sets out measurements from ChEMBL document CHEMBL1134273, “Design, synthesis, and characterization of the antitumor activity of novel ceramide analogues” (J Med Chem, 2001).

pIC50: −log10 of the molar value.

Experiment [1] concerns CCRF-CEM. In words: In vitro growth inhibitory effect in human T-cell acute leukemia cells CCRF-CEM. Type of experiment: functional, cell-based.
Experiment [2] concerns CCRF-CEM. Description: Percentage increase in caspase-3 activity of CCRF-CEM human T-leukemia cells. In kind it is functional.

As usually defined, the pIC50 is −log10 of the IC50, conventionally taken in molar units. High values mean a low IC50, low ones a high IC50. Take `CCCCCCCCCCCCC/C=C/[C@@H](O)[C@H](CO)NC(C)=O`: in the experiment on CCRF-CEM [1], the pIC50 was 4.50. Also, the Increase in the experiment on CCRF-CEM [2] is 2.8%. In turn, `CCCCCCCCCCCCCCc1c(O)nc(O)nc1CC` had a pIC50 with CCRF-CEM [1] of 5.10. The same compound returned an Increase with CCRF-CEM [2] of 8.1%. Compound `CCCCCCCCCCCCCCc1nc(S)nc(O)c1CC` registered an Increase with CCRF-CEM [2] of 1.2%. In the experiment with CCRF-CEM [2], `CCCCCCCCCCCCCCc1nc(O)nc(O)c1CC` showed an Increase of 1.7%. Compound `CCCCCCCCCCCCCCc1c(O)nc(S)nc1CC` gave a pIC50 in the experiment with CCRF-CEM [1] of 5.77. In the experiment on CCRF-CEM [2], the Increase was found to be 5%.
